Experimental data: patent publication US10722501B2 (BAYER AKTIENGESELLSCHAFT, priority 2016, dated 2020)

biological target: T1, recombinant full-length human prolyl endopeptidase (PREP) (Homo sapiens, UniProt P48147); test: Biochemical human prolyl endopeptidase (PREP) assay with fluorescently labelled substrate; conditions: substrate Z-Gly-Pro-AMC 50 μM, 32° C., 60 min; some as mean values from multiple independent determinations
T1 construct: To recombinant full-length human prolyl endopeptidase (PREP, R&D-Systems, 4308-SE); purchased R&D-Systems 4308-SE
T1 sequence (P48147 1-710): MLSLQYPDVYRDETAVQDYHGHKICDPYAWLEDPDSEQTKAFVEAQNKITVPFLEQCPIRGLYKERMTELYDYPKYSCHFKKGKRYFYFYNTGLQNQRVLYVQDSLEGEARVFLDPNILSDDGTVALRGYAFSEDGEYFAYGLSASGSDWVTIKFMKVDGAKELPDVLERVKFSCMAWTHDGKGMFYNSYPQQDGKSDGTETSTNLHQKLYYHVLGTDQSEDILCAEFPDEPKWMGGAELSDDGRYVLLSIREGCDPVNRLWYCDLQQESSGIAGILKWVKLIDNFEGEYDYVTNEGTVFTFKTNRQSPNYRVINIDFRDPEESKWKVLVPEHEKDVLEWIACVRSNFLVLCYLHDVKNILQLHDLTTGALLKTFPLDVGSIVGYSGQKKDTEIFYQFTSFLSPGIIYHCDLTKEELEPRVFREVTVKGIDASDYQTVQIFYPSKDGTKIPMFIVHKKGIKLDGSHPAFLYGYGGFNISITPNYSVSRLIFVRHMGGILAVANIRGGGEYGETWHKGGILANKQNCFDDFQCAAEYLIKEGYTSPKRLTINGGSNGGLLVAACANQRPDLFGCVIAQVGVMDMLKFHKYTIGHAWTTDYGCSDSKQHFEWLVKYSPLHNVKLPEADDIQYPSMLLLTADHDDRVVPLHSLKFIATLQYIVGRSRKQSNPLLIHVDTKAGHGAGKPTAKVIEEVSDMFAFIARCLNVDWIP
Summary of the method: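 Initial rates of fluorescence increase from 50 μM Z-Gly-Pro-AMC cleavage (ex 360/em 465 nm, 60 min, 32° C) give percent PREP activity versus no-compound control, and IC50 is interpolated. Enzyme used at 0.4 nM (final, example) in Tris pH 7.5 with EDTA, GSH, BSA and Brij-35; compounds span 1 nM to 30 μM.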

Row | SMILES | IC50 [nM]
1 | CC1CCC(C(=O)N2CC[C@H](F)C2)n2c1nn(Cc1ccc(C(F)(F)F)nc1)c2=O (mixture of isomers) [Example 220, (5RS,8RS)-5-{[(3S)-3-Fluoropyrrolidin-1-yl]carbonyl}-8-methyl-2-{[6-(trifluoromethyl)pyridin-3-yl]methyl}-5,6,7,8-tetrahydro[1,2,4]triazolo[4,3-a]pyridin-3(2H)-one] | 1.5
2 | O=C(C1CCCc2nn(Cc3ccc(C(F)(F)F)nc3)c(=O)n21)N1CC[C@@H](F)C1 (mixture of isomers) [Example 100, (5RS)-5-{[(3R)-3-Fluoropyrrolidin-1-yl]carbonyl}-2-{[6-(trifluoromethyl)pyridin-3-yl]methyl}-5,6,7,8-tetrahydro[1,2,4]triazolo[4,3-a]pyridin-3(2H)-one] | 7.9
3 | N#Cc1ccc(Cn2nc3n(c2=O)C(C(=O)N2CCCC2)CCC3)cn1 (racemic) [Example 35, 5-{[(5RS)-3-Oxo-5-(pyrrolidin-1-ylcarbonyl)-5,6,7,8-tetrahydro[1,2,4]triazolo[4,3-a]pyridin-2(3H)-yl]methyl}pyridine-2-carbonitrile] | 15
4 | O=C([C@@H]1CCCc2nn(Cc3cc(C(F)(F)F)c(Cl)cn3)c(=O)n21)N1CC[C@H](F)C1 [Example 376, (5S)-2-{[5-Chloro-4-(trifluoromethyl)pyridin-2-yl]methyl}-5-{[(3S)-3-fluoropyrrolidin-1-yl]carbonyl}-5,6,7,8-tetrahydro[1,2,4]triazolo[4,3-a]pyridin-3(2H)-one] | 0.41
5 | Cc1ccc(Cn2nc3n(c2=O)[C@H](C(=O)N2CCC[C@@H]2C)CCC3)cc1 [Example 127, 2-(4-Methylbenzyl)-(5S)-{[(2S)-2-methylpyrrolidin-1-yl]carbonyl}-5,6,7,8-tetrahydro[1,2,4]triazolo[4,3-a]pyridin-3(2H)-one] | 43.5
6 | O=C([C@@H]1CCCc2nn(Cc3nc(C(F)(F)F)no3)c(=O)n21)N1C[C@@H](F)[C@@H](F)C1 [Example 500, (5S)-5-{[(3R,4S)-3,4-Difluoropyrrolidin-1-yl]carbonyl}-2-{[3-(trifluoromethyl)-1,2,4-oxadiazol-5-yl]methyl}-5,6,7,8-tetrahydro[1,2,4]triazolo[4,3-a]pyridin-3(2H)-one] | 5.15
7 | O=C(C1CCCc2nn(Cc3cc(Cl)cc(Cl)c3)c(=O)n21)N1CCCC1 (racemic) [Example 81, (5RS)-2-(3,5-Dichlorobenzyl)-5-(pyrrolidin-1-ylcarbonyl)-5,6,7,8-tetrahydro[1,2,4]triazolo[4,3-a]pyridin-3(2H)-one] | 0.84
8 | CC1CCC(C(=O)N2CCC(F)(F)C2)n2c1nn(Cc1ccc(C(F)(F)F)nc1)c2=O (racemic) [Example 330, (5RS,8RS)-5-[(3,3-Difluoropyrrolidin-1-yl)carbonyl]-8-methyl-2-{[6-(trifluoromethyl)pyridin-3-yl]methyl}-5,6,7,8-tetrahydro[1,2,4]triazolo[4,3-a]pyridin-3(2H)-one] | 4.9
9 | O=C([C@@H]1CCCc2nn(Cc3nc(C(F)(F)F)no3)c(=O)n21)N1CCC(F)(F)C1 [Example 501, (5S)-5-[(3,3-Difluoropyrrolidin-1-yl)carbonyl]-2-{[3-(trifluoromethyl)-1,2,4-oxadiazol-5-yl]methyl}-5,6,7,8-tetrahydro[1,2,4]triazolo[4,3-a]pyridin-3(2H)-one] | 25.5
10 | O=C(C1CC(C(F)(F)F)Cc2nn(Cc3ccnc(C(F)(F)F)c3F)c(=O)n21)N1CC(F)C1 (single isomer, unassigned) [Example 254, (5RS,7RS)-5-[(3-Fluoroazetidin-1-yl)carbonyl]-2-{[3-fluoro-2-(trifluoromethyl)pyridin-4-yl]methyl}-7-(trifluoromethyl)-5,6,7,8-tetrahydro[1,2,4]triazolo[4,3-a]pyridin-3(2H)-one] | 30.5
11 | O=C([C@@H]1CCCc2nn(Cc3ccc(C(F)(F)F)c(F)c3)c(=O)n21)N1CC(F)C1 [Example 473, (5S)-5-[(3-Fluoroazetidin-1-yl)carbonyl]-2-[3-fluoro-4-(trifluoromethyl)benzyl]-5,6,7,8-tetrahydro[1,2,4]triazolo[4,3-a]pyridin-3(2H)-one] | 0.17
12 | O=C([C@@H]1CCCc2nn(Cc3cncc(Cl)c3)c(=O)n21)N1CC(F)C1 [Example 436, (5S)-2-[(5-Chloropyridin-3-yl)methyl]-5-[(3-fluoroazetidin-1-yl)carbonyl]-5,6,7,8-tetrahydro[1,2,4]triazolo[4,3-a]pyridin-3(2H)-one] | 4.7
13 | O=C([C@@H]1CCCc2nn(Cc3ccnc(C(F)(F)F)c3F)c(=O)n21)N1CCCC1 [Example 75, (5S)-2-{[3-Fluoro-2-(trifluoromethyl)pyridin-4-yl]methyl}-5-(pyrrolidin-1-ylcarbonyl)-5,6,7,8-tetrahydro[1,2,4]triazolo[4,3-a]pyridin-3(2H)-one] | 1.1
14 | O=C(C1CC(C(F)(F)F)Cc2nn(Cc3ncc(F)cc3Cl)c(=O)n21)N1CC[C@H](F)C1 (mixture of isomers) [Example 571, (5RS,7RS)-2-[(3-Chloro-5-fluoropyridin-2-yl)methyl]-5-{[(3S)-3-fluoropyrrolidin-1-yl]carbonyl}-7-(trifluoromethyl)-5,6,7,8-tetrahydro[1,2,4]triazolo[4,3-a]pyridin-3(2H)-one] | 1.1
15 | O=C([C@@H]1CCC(O)c2nn(Cc3ccc(Cl)cn3)c(=O)n21)N1CC[C@H](F)C1 (mixture of isomers) [Example 547, (5S,8RS)-2-[(5-Chloropyridin-2-yl)methyl]-5-{[(3S)-3-fluoropyrrolidin-1-yl]carbonyl}-8-hydroxy-5,6,7,8-tetrahydro[1,2,4]triazolo[4,3-a]pyridin-3(2H)-one] | 0.43
16 | O=C(C1C(C(F)(F)F)CCc2nn(Cc3ncc(Cl)cc3F)c(=O)n21)N1C[C@@H](F)[C@@H](F)C1 (mixture of isomers) [Example 291, (5RS,6RS)-2-[(5-Chloro-3-fluoropyridin-2-yl)methyl]-5-{[(3R,4S)-3,4-difluoropyrrolidin-1-yl]carbonyl}-6-(trifluoromethyl)-5,6,7,8-tetrahydro[1,2,4]triazolo[4,3-a]pyridin-3(2H)-one] | 96.5
17 | COC1CN(C(=O)C2CCCc3nn(Cc4ccc(C)cc4)c(=O)n32)C1 (racemic) [Example 125, (5RS)-5-[(3-Methoxyazetidin-1-yl)carbonyl]-2-(4-methylbenzyl)-5,6,7,8-tetrahydro[1,2,4]triazolo[4,3-a]pyridin-3(2H)-one] | 25
18 | O=C(C1CC(C(F)(F)F)Cc2nn(Cc3ncc(F)cc3F)c(=O)n21)N1CC[C@H](F)C1 (single isomer, unassigned) [Example 570] | 0.57
19 | Cc1ccc(Cn2nc3n(c2=O)[C@H](C(=O)N2CC[S+]([O-])C2)CCC3)cc1 (mixture of isomers) [Example 141, (5S)-2-(4-Methylbenzyl)-5-{[(1 RS)-1-oxido-1,3-thiazolidin-3-yl]carbonyl}-5,6,7,8-tetrahydro[1,2,4]triazolo[4,3-a]pyridin-3(2H)-one] | 0.83
20 | O=C([C@@H]1CCCc2nn(Cc3ccc(F)c(Cl)c3)c(=O)n21)N1CC[C@H](F)C1 [Example 454, (5S)-2-(3-Chloro-4-fluorobenzyl)-5-{[(3S)-3-fluoropyrrolidin-1-yl]carbonyl}-5,6,7,8-tetrahydro[1,2,4]triazolo[4,3-a]pyridin-3(2H)-one] | 0.063
